According to US10059703B2, “3-alkyl-5-fluoro-4-substituted-imino-3,4-dihydropyrimidin-2(1H)-one derivatives as fungicides” (Adama Makhteshim Ltd., priority 2012, dated 2018):
Where two headings read alike, the source gives them in different places.

Tests used:
[1] = system: Septoria tritici; assay: Fungicidal activity: leaf blotch of wheat, one-day protectant and three-day curative tests on wheat plants; format: in vivo; conditions: Zymoseptoria tritici
Experimental: Example 16: Evaluation of Fungicidal Activity: Leaf Blotch of Wheat (Mycosphaerella graminicola; anamorph: Septoria tritici; Bayer code SEPTTR)
Wheat plants (variety Yuma) were grown from seed in a greenhouse in 50% mineral soil/50% soil-less Metro mix until the first leaf was fully emerged, with 7-10 seedlings per pot. These plants were inoculated with an aqueous spore suspension of Septoria tritici either prior to or after fungicide treatments. After inoculation the plants were kept in 100% relative humidity (one day in a dark dew chamber followed by two to three days in a lighted dew chamber) to permit spores to germinate and infect the leaf. The plants were then transferred to a greenhouse for disease to develop.
(§1) The following tables present the activity of typical compounds of the present disclosure when evaluated in these experiments. The effectiveness of the test compounds in controlling disease was determined by assessing the severity of disease on treated plants, then converting the severity to percent control based on the level of disease on untreated, inoculated plants.
as §1, with “table presents” for “tables present”

[2] = 24 h, One-Day Protectant (1 DP), 100 ppm, wheat plants (variety Yuma), read-out: SEPTTR 100 PPM 1 DP (% Disease Control rating)
[3] = 72 h, Three-Day Curative (3 DC), 100 ppm, wheat plants (variety Yuma), read-out: SEPTTR 100 PPM 3 DC (% Disease Control rating)
[4] = 24 h, read-out: SEPTTR 100 PPM 1 DP (% Disease Control rating)
[5] = 72 h, read-out: SEPTTR 100 PPM 3 DC (% Disease Control rating)

SMILES	pest or weed control at 100 ppm [1, 2] [%]	pest or weed control at 100 ppm [1, 3] [%]	melting point [°C]	pest or weed control at 100 ppm [1, 4] [%]	pest or weed control at 100 ppm [1, 5] [%]
C/N=c1\c(F)cn(S(=O)(=O)c2cc(Cl)sc2Cl)c(=O)n1C [Compound F9]	76 to 100	76 to 100	157.1 to 158		
CC(C)c1ccc(S(=O)(=O)n2cc(F)/c(=N\Cc3ccccc3F)n(C)c2=O)cc1 [Compound F56]	0 to 25	0 to 25	140 to 143		
C/N=c1\c(F)cn(S(=O)(=O)c2cccc(F)c2)c(=O)n1C [Compound F14]	76 to 100	51 to 75	137.3 to 138.9		
C/N=c1\c(F)cn(S(=O)(=O)C2CC2)c(=O)n1C [Compound F28]	0 to 25	51 to 75	102.2 to 104		
CC(C)c1ccc(S(=O)(=O)n2cc(F)/c(=N\C(=O)Oc3ccccc3)n(C)c2=O)cc1 [Compound F41]			180 to 181	0 to 25	0 to 25
C/N=c1\c(F)cn(S(=O)(=O)c2ccc(Cl)cc2)c(=O)n1C [Compound F5]	76 to 100	76 to 100	130 to 134		
C/N=c1\c(F)cn(S(=O)(=O)c2cccc(C#N)c2)c(=O)n1C [Compound F7]	26 to 50	51 to 75	148.6 to 150.6		
CC(=O)/N=c1\c(F)cn(S(=O)(=O)c2cccc(C)c2)c(=O)n1C [Compound F34]	76 to 100	0 to 25	164		
C/N=c1\c(F)cn(S(=O)(=O)c2cccc(C)c2)c(=O)n1C [Compound F16]	26 to 50	0 to 25	123.7 to 125.8		
C/N=c1\c(F)cn(S(=O)(=O)c2ccc(OC(F)(F)F)cc2)c(=O)n1C [Compound F6]	76 to 100	76 to 100	139.2 to 140		
COC(=O)/N=c1\c(F)cn(S(=O)(=O)c2ccc(C(C)C)cc2)c(=O)n1C [Compound F48]	0 to 25	0 to 25	116 to 117		
C/N=c1\c(F)cn(S(=O)(=O)c2cn(C)nc2C)c(=O)n1C [Compound F18]	26 to 50	76 to 100	147 to 149		
Cn1c(=O)n(S(=O)(=O)c2ccccc2)cc(F)/c1=N\Cc1ccccc1F [Compound F52]	0 to 25	0 to 25	189 to 192		
Cn1c(=O)n(S(=O)(=O)c2ccccc2)cc(F)/c1=N\C(=O)Oc1ccccc1 [Compound F38]			170 to 171	76 to 100	76 to 100
COC(=O)/N=c1\c(F)cn(S(=O)(=O)c2cc(C)c(Cl)cc2C)c(=O)n1C [Compound F50]	0 to 25	0 to 25	178 to 179		
Cc1cc(S(=O)(=O)n2cc(F)/c(=N\C(=O)Oc3ccccc3)n(C)c2=O)c(C)cc1Cl [Compound F43]			209 to 211	0 to 25	0 to 25
C/N=c1\c(F)cn(S(=O)(=O)c2c(C)cc(C)cc2C)c(=O)n1C [Compound F15]	26 to 50	26 to 50	175.7 to 177.6		
C/N=c1\c(F)cn(S(=O)(=O)c2c(C)noc2C)c(=O)n1C [Compound F19]	0 to 25	51 to 75	130.1 to 131.1		
Cc1cc(S(=O)(=O)n2cc(F)/c(=N\Cc3ccccc3F)n(C)c2=O)c(C)cc1Cl [Compound F58]	0 to 25	0 to 25	208 to 210		
Cc1cccc(S(=O)(=O)n2cc(F)/c(=N\C(=O)Oc3ccccc3)n(C)c2=O)c1 [Compound F42]			187 to 188	76 to 100	0 to 25
C/N=c1\c(F)cn(S(=O)(=O)c2ccc(OC)cc2)c(=O)n1C [Compound F1, (E)-5-fluoro-1-((4-methoxyphenyl)sulfonyl)-3-methyl-4-(methylimino)-3,4-dihydropyrimidin-2(1H)-one]	76 to 100	51 to 75	97 to 105		
